Source: US20080194637A1, “Small organic molecule regulators of cell proliferation” (Curis, Inc., priority 2006, published 2008)
Counter-ions that a name gives are not always drawn. Like-named read-outs stand apart in the source and are kept apart here.

What was measured:
[1] = tested on: C57BL/6 male mice with DHT pellet; assay: DHT-induced alopecia mouse model of male pattern baldness; assay type: in vivo; settings: C57BL/6 male mice with subcutaneous DHT pellet (2.5 mg 21 day), dosed topically once, visually graded for hair regrowth
Protocol: (§1) A mouse model of male pattern baldness is used to investigate the effectiveness of the present compounds for growing hair. Agonists for the sonic hedgehog pathway that act by binding and activating Smoothened were tested in a formulation of 50:30:20 PG:EtOH:water or 5:95 DMSO:acetone vehicle. C57BL/6 male mice (48-52 days old on arrival) from Charles River Labs were used on the study. The mice were housed and cared for according to established procedures. Food and water were ad libitum. On Day 0, the mice were shaved on their lower back, an area of ˜1.5 inches×˜2 inches with Wahl clippers using a surgical blade. On day −3, the mice were anesthetized with isoflurane, their back was rinsed with a pad of 70% ethanol, a placebo pellet or a DHT pellet (2.5 mg 21 day pellet) were implanted subcutaneously between the shoulder blades with a 10 gauge trochar. DHT pellet transplantation results in maintenance of existing hair follicles in the resting (telogen) phase. The hole was stapled with a sterile autoclip and the mice were returned to their cage after awaking. The mice were dosed topically once and visually graded daily, except weekends, for melanogenesis and hair regrowth of fur in the dosed area (Table 4).
In the absence of treatment with the present compounds, the follicles remain in telogen rather than following the normal time course of the mouse hair cycle.

C57BL/6 male mice = assay: C57BL/6 hair growth after single topical dose; assay type: in vivo, mouse; settings: shaved lower back, dosed topically once, visually graded for melanogenesis and hair regrowth
Protocol: as §1

[2] = tested on: sonic hedgehog pathway, Daoy human medulloblastoma cells; assay: Human hedgehog reporter assay Daoy-GliLuc (DGL); assay type: cell-based
Excerpt: (§2) Mouse (TM3: mouse Leydig cells; S12: mouse embryonic mesenchymal cells) and human (Daoy: human medulloblastoma cell; HepM: human embryonic palatal mesenchymal cell) cell lines are used to screen small molecules for their ability to modulate the activity of the sonic hedgehog pathway (Table 1, Table 2, and Table 3). Stable hedgehog pathway reporter cell lines are established by specific antibiotic selection following transfection of a reporter plasmid containing a luciferase gene located directly downstream from the gli promoter. Consequently, any observable changes in cellular luciferase activity may be attributed to changes in sonic hedgehog pathway activity in mouse and human cells, respectively, since gli is the major by-product of this pathway. To calculate activity, we generate an eleven point dose curve for each compound using 1:3 dilutions in 96 well assay plates. Each plate tested also contains low and high control to establish maximal pathway activation so to establish/compare a percentage activation of each tested compound (AMAX) on respective plates. Also we calculate EC50 values, or a concentration where the pathway will be exactly 50% activated, for each tested compound to determine potency. In these cell lines, compounds that register >20% AMAX values are considered active.
(§3) Stable hedgehog pathway reporter cell lines are established following specific antibiotic selection following transfection of a reporter plasmid In short, typically cells are plated in MicroTiter-plates at 10,000-20,000 cells per well, in growth media (containing 10%-20% FBS). After 48-72 hrs (HGL and DGL respectively) the media in the assay plates is switched to low-serum containing media (0.5% FBS). At that time compounds are added (at 1-5 μM) to the assay plates, in the presence or absence of hedgehog protein (octyl-modified version; 1-5 ng/ml). After another 24 hrs of incubation, the media from the assay plates is discarded and replaced with luciferase assay-mix. Subsequently, plates are incubated at RT for ˜15-30 mins and then read in a luminometer. [note: addition of the Hedgehog protein, although not critical, will sensitize the assay allowing the identification of weak actives].

[3] = tested on: sonic hedgehog pathway, S12 mouse embryonic mesenchymal cells; assay: Hedgehog pathway Gli-luciferase reporter assay in S12 cells; assay type: cell-based
Excerpt: as §2, §3

[4] = tested on: sonic hedgehog pathway, TM3 mouse Leydig cells; assay: Hedgehog pathway Gli-luciferase reporter assay in TM3 cells; assay type: cell-based; settings: Table 1
Excerpt: as §2, §3

[5] = tested on: sonic hedgehog pathway, HepM human embryonic palatal mesenchymal cells; assay: Human hedgehog reporter assay HEPM-GliLuc (HGL); assay type: cell-based; settings: HepM human embryonic palatal mesenchymal cells, gli-luciferase reporter, Table 1
Excerpt: as §2, §3

[6] = Daoy human cells, Gli-Luc, Table 2, read-out: Human Daoy (Gli-Luc) Avg. EC50
[7] = S12 mouse cells, Table 2, read-out: Mouse S12 Avg. EC50
[8] = Daoy human medulloblastoma cells, gli-luciferase reporter, Table 1, read-out: Daoy Avg. EC50
[9] = S12 mouse embryonic mesenchymal cells, Table 1, read-out: S12 Avg. EC50

| SMILES | Androgenetic Alopecia [1] | C57BL/6 Hair Growth (C57BL/6 male mice) | further results |
| --- | --- | --- | --- |
| CN[C@H]1CC[C@H](N(Cc2cc(-c3cc(C)nc(C)c3)ccc2OC)C(=O)c2sc3ccccc3c2Cl)CC1 | yes | yes |  |
| CN[C@H]1CC[C@H](N(Cc2cc(-c3ccc(N)nc3)ccc2OC)C(=O)c2sc3cccc(F)c3c2Cl)CC1 | yes | yes |  |
| CN[C@H]1CC[C@@H](N(Cc2cc(-c3cccc([S+](C)[O-])c3)ccc2OC)C(=O)c2sc3c(F)ccc(F)c3c2Cl)CC1 (some centres unmarked) [Compound 376, 3-Chloro-4,7-difluoro-benzo[b]thiophene-2-carboxylic acid (3′-methanesulfinyl-4-methoxy-biphenyl-3-ylmethyl)-(4-methylamino-cyclohexyl)-amide trifluoroacetate] |  |  | EC50 [2, 6]: < 50 nM; EC50 [3, 7]: < 50 nM |
| CNC1CCC(N(Cc2cc(-c3ccncc3)ccc2OC)C(=O)c2sc3ccccc3c2Cl)CC1 (centres unmarked) | yes | yes |  |
| CN[C@H]1CC[C@@H](N(Cc2cc(-c3ccc([S+](C)[O-])cc3)ccc2OC)C(=O)c2sc3c(F)ccc(F)c3c2Cl)CC1 (some centres unmarked) [Compound 377, 3-Chloro-4,7-difluoro-benzo[b]thiophene-2-carboxylic acid (4′-methanesulfinyl-4-methoxy-biphenyl-3-ylmethyl)-(4-methylamino-cyclohexyl)-amide trifluoroacetate] |  |  | EC50 [2, 6]: < 50 nM; EC50 [3, 7]: < 50 nM |
| CN[C@H]1CC[C@H](N(Cc2cc(-c3ccnc(C(=O)N(C)C)c3)ccc2OC)C(=O)c2sc3c(F)ccc(F)c3c2Cl)CC1 | yes | yes |  |
| CN[C@H]1CC[C@@H](N(Cc2cc(-c3cc[n+]([O-])cc3)ccc2OC)C(=O)c2sc3c(F)ccc(F)c3c2Cl)CC1 [Compound 374, 4-(3-((3-chloro-4,7-difluoro-N-((1s,4s)-4-(methylamino)cyclohexyl)benzo[b]thiophene-2-carboxamido)methyl)-4-methoxyphenyl)pyridine 1-oxide] |  |  | EC50 [2, 6]: < 50 nM; EC50 [3, 7]: < 50 nM |
| CN[C@H]1CC[C@H](N(Cc2cc(-c3ccc(S(C)(=O)=O)cc3)ccc2OC)C(=O)c2sc3ccccc3c2Cl)CC1 | yes | yes |  |
| CN[C@H]1CC[C@H](N(Cc2cc(-c3ccc(NS(C)(=O)=O)nc3)ccc2OC)C(=O)c2sc3c(F)ccc(F)c3c2Cl)CC1 |  | yes |  |
| CN[C@H]1CC[C@H](N(Cc2cc(-c3ccnc(C(=O)OC)c3)ccc2OC)C(=O)c2sc3c(F)ccc(F)c3c2Cl)CC1 | yes | yes |  |
| CN[C@H]1CC[C@@H](N(Cc2cc(-c3ccc(SC)cc3)ccc2OC)C(=O)c2sc3c(F)ccc(F)c3c2Cl)CC1 [Compound 373, 3-Chloro-4,7-difluoro-benzo[b]thiophene-2-carboxylic acid (4-methoxy-4′-methylsulfanyl-biphenyl-3-ylmethyl)-(4-methylamino-cyclohexyl)-amide hydrochloride] |  |  | EC50 [2, 6]: < 50 nM; EC50 [3, 7]: < 50 nM |
| CN[C@H]1CC[C@@H](N(Cc2cc(-c3cccnc3)ccc2OC)C(=O)c2sc3cccc(F)c3c2Cl)CC1 [360 (R16), 3-Chloro-4-fluoro-benzo[b]thiophene-2-carboxylic acid (2-methoxy-5-pyridin-3-yl-benzyl)-(4-methylamino-cyclohexyl)-amide dihydrochloride] |  |  | EC50 [2, 8]: < 50 nM; EC50 [4]: < 50 nM; EC50 [5]: < 50 nM; EC50 [3, 9]: < 50 nM |
| CN[C@H]1CC[C@H](N(Cc2cc(-c3ccc(C(N)=O)cc3)ccc2OC)C(=O)c2sc3c(F)ccc(F)c3c2Cl)CC1 | yes | yes |  |
| CCOc1ccc(-c2ccc(C)nc2)cc1CN(C(=O)c1sc2ccccc2c1Cl)[C@H]1CC[C@H](NC)CC1 |  | yes |  |
| CN[C@H]1CC[C@H](N(Cc2cc(-c3ccnc(C(=O)O)c3)ccc2OC)C(=O)c2sc3c(F)ccc(F)c3c2Cl)CC1 |  | no |  |
| CN[C@H]1CC[C@@H](N(Cc2cc(-c3ccc(C(C)=O)cc3)ccc2OC)C(=O)c2sc3ccccc3c2Cl)CC1 [Compound 303, 3-Chloro-benzo[b]thiophene-2-carboxylic acid (4′-acetyl-4-methoxy-biphenyl-3-ylmethyl)-(4-methylamino-cyclohexyl)-amide hydrochloride] |  |  | EC50 [2, 8]: < 50 nM; EC50 [4]: < 50 nM; EC50 [5]: < 50 nM; EC50 [3, 9]: < 50 nM |
| CN[C@H]1CC[C@H](N(Cc2cc(-c3ccnc(C)c3)ccc2OC)C(=O)c2sc3ccccc3c2Cl)CC1 | yes | yes |  |
| COc1ccc(-c2cc[n+](C)cc2)cc1CN(C(=O)c1sc2c(F)ccc(F)c2c1Cl)[C@H]1CC[C@@H](N)CC1 [Compound 418] |  |  | EC50 ([2]; Daoy human cells, gli-luciferase reporter, Table 3, read-out: Daoy Avg. EC50): < 50 nM; EC50 ([3]; S12 mouse embryonic mesenchymal cells, Table 3, read-out: S12 Avg. EC50): 1000 to 2500 nM |
| CN[C@H]1CC[C@H](N(Cc2cc(-c3ccccc3)ccc2OC)C(=O)c2sc3ccccc3c2Cl)CC1 | yes | yes |  |
| CN[C@H]1CC[C@@H](N(Cc2cc(-c3cccc(SC)c3)ccc2OC)C(=O)c2sc3c(F)ccc(F)c3c2Cl)CC1 [Compound 372, 3-Chloro-4,7-difluoro-benzo[b]thiophene-2-carboxylic acid (4-methoxy-3′-methylsulfanyl-biphenyl-3-ylmethyl)-(4-methylamino-cyclohexyl)-amide hydrochloride] |  |  | EC50 [2, 6]: < 50 nM; EC50 [3, 7]: < 50 nM |
